Measured values taken from US10751379B2, “Method for preparing anti-obesity composition by using astringent persimmons and mandarin peels” (INDUSTRY ACADEMIC COORPERATION FOUNDATION DAEGU HAANY …, priority 2016, dated 2020).
In brackets after ≈: the same amount, converted by molar mass.

Assays:
[1] = tested on: HFD-induced obesity in mice; experiment: Serum lipid profiles in HFD-induced obesity mice, 6 weeks; assay type: in vivo, ICR mice; settings: Orlistat orally daily for 6 weeks
Experimental: Male healthy 4-week-old ICR mice (about 30-32 g) were purchased from Orient (Gyeonggi-do, Korea). Each mouse was kept at room temperature (22±3° C.) and humidity (55±5%) with a 12-h light/dark cycle. The experiments were approved by the Ethics Committee of Animal Experimentation of the University of Daegu Haany. The mice were allowed free access to laboratory pellet chow and water ad libitum. After adaptation (1 week), all experimental mice except normal mice (n=8) were fed with 60% high-fat diet (HFD; Diet 12492, Research Diets, Inc., 105 New Brunswick, N.J., USA) for 5 days to adapt to a feed. Thereafter, ICR mice (n=32) fed 60% HFD were randomly divided into four groups (HFD control group, orlistat group, and two PCM treatment groups (50 and 200 mg/kg/day))(in each group n=8). The normal group is supplied with a normal feed and the rest of the groups are supplied with 60% HFD until the end of experiment. The normal and HFD control groups were given water using a stomach tube, while the drug treatment groups were orally given Orlistat or PCM daily using a stomach tube for 6 weeks. After administration for 6 weeks, each mouse was sacrificed after fasting for 12 hours. The blood was immediately centrifuged for 10 minutes at 4° C. Serum triglyceride and total cholesterol were conducted spectrophotometrically using commercially available kits (Wako Pure Chemical Industries, Ltd., Osaka, Japan). HDL-cholesterol is measured using a commercial kit from Asan Pharm Co., Ltd. (Hwaseong-si, Korea, Cat AM203). LDL-cholesterol levels are calculated though TG, TC and HDL levels, and the following formula.

pancreatic lipase enzyme = target: T1, pancreatic lipase enzyme (Homo sapiens, UniProt P16233); settings: background statement; cited from earlier work
T1 sequence (P16233 17-465): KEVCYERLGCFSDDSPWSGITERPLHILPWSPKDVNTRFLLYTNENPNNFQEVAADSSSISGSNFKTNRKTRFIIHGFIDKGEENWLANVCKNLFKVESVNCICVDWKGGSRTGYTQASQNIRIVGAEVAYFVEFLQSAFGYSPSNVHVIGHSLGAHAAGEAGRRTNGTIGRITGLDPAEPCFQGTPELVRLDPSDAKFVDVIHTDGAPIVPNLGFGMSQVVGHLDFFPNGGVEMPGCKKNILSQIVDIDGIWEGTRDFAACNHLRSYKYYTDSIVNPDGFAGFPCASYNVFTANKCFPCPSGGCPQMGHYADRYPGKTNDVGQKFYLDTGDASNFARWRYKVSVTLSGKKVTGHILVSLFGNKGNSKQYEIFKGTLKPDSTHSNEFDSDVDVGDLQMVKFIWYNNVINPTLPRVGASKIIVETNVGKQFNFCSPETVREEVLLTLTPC

[2] = target: T2, porcine pancreatic lipase (Sus scrofa, UniProt P00591); experiment: Pancreatic lipase inhibition (p-NPB hydrolysis); assay type: biochemical; settings: PCM 100-1000 μg/mL, orlistat 0.1-1 μg/mL, n=4
T2 construct: purchased Sigma-Aldrich Co. Type 2 (catalogue number not given)
T2 sequence (P00591 1-450): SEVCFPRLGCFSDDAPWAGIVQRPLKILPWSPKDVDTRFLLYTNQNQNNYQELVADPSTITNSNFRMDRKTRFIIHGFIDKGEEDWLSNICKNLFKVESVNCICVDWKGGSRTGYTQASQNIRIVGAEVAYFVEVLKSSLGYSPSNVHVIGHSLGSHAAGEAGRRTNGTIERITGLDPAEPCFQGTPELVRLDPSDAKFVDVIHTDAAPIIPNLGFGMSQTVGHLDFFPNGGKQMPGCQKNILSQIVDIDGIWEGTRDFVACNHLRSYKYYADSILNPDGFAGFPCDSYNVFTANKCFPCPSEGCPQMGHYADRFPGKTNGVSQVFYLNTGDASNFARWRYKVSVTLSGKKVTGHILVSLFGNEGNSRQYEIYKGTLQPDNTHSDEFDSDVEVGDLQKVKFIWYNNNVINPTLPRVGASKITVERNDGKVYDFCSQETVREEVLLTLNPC

[3] = tested on: HFD-induced obesity in mice; experiment: Body weight and visceral fat in HFD-induced obesity mice, 6 weeks; assay type: in vivo, ICR mice
Experimental: Male healthy 4-week-old ICR mice (about 30-32 g) were purchased from Orient (Gyeonggi-do, Korea). Each mouse was kept at room temperature (22±3° C.) and humidity (55±5%) with a 12-h light/dark cycle. […] The mice were allowed free access to laboratory pellet chow and water ad libitum. After adaptation (1 week), all experimental mice except normal mice (n=8) were fed with 60% high-fat diet (HFD; Diet 12492, Research Diets, Inc., 105 New Brunswick, N.J., USA) for 5 days to adapt to a feed. Thereafter, ICR mice (n=32) fed 60% HFD were randomly divided into four groups (HFD control group, orlistat group, and two PCM treatment groups (50 and 200 mg/kg/day))(in each group n=8). The normal group is supplied with a normal feed and the rest of the groups are supplied with 60% HFD until the end of experiment. The normal and HFD control groups were given water using a stomach tube, while the drug treatment groups were orally given Orlistat or PCM daily using a stomach tube for 6 weeks. After administration for 6 weeks, each mouse was sacrificed after fasting for 12 hours. The blood was immediately centrifuged for 10 minutes at 4° C.

ABTS radical inhibition = assay type: biochemical; settings: 15 minutes at room temperature in the dark, 750 nm
Experimental: ABTS inhibition of the different extracts was measured according to the modified method of Park et al. ABTS stock solution was dissolved in water to 7.4 mM concentration. The ABTS radical cation (ABTS) was produced by reacting ABTS stock solution with 2.45 mM potassium persulfate and allowing the mixture to stand for 14 hours at room temperature in the dark. The ABTS solution was diluted with ethanol to obtain an absorbance of 0.70±0.02 at 750 nm. After adding diluted ABTS solution to PCM solution, the mixture was left standing at room temperature for 15 minutes in the dark. The ascorbic acid (standard sample) was prepared for eight concentrations (0.5, 1, 2, 5, 10, 20, 50, and 200 μg/mL). The absorbance at 750 nm was measured using a microplate reader (M200 PRO, Tecan, Austria). The blank was prepared in the same manner, except that distilled water was used instead of the sample. The radical scavenging activity was calculated using the following formula. ABTS radical scavenging activity (%)=[1(Asample/Ablank)]×100

[4] = DPPH radical inhibition (antioxidant activity); assay type: biochemical; settings: 60 μM DPPH, 30 minutes at 25° C., 540 nm
Experimental: The ascorbic acid (standard sample) was prepared for eight concentrations (0.5, 1, 2, 5, 10, 20, 50, and 200 μg/mL). The reaction mixture was stored in the dark at 25° C. for 30 minutes. The optical density was determined using a microplate reader (M200 PRO, Tecan, Austria). The mixture was measured spectrophotometrically using 540 nm. The antioxidant activity of each sample was expressed in terms of IC50 (micromolar concentration required to inhibit DPPH radical formation by 50%, calculated from the log-dose inhibition curve). Antioxidant activity was expressed in terms of IC50, and a lower IC50 value corresponds to a large inhibition. The radical scavenging activity was calculated using the following formula. DPPH radical scavenging activity (%)=[1(Asample/Ablank)]×100

[5] = Orlistat orally daily for 6 weeks

IC50 value against the ABTS (ABTS radical inhibition)	IC50 of DPPH inhibition [4]	SMILES	LDL-cholesterol level ([1]; calculated from TG, TC, HDL)	TC level ([1]; serum)	TG level ([1]; serum)	prevention of absorption of dietary fat (pancreatic lipase enzyme)	side effects (pancreatic lipase enzyme)	lipase inhibition versus dose (FIG. 2) [2]	Weight Amount of change [3, 5]	Weight Final [3, 5]	visceral fat weight compared with HFD control mice ([3]; Orlistat, 6 weeks)
–	–	CCCCCCCCCCC[C@@H](C[C@@H]1OC(=O)[C@H]1CCCCCC)OC(=O)[C@H](CC(C)C)NC=O [Orlistat]	at the same level as normal food-supplied mice	at the same level as normal food-supplied mice	at the same level as normal food-supplied mice	approximately 30%	severe gastrointestinal side effects	did not rise at least a certain concentration	8.21 ± 1.82 g/6 weeks	44.92 ± 1.62 g	significantly decreased
2.27 ± 0.19 µg/mL (≈ 12.9 µM)	1.26 ± 0.02 µg/mL	O=C1O[C@H]([C@@H](O)CO)C(O)=C1O [ascorbic acid]	–	–	–	–	–	–	–	–	–
